Assay results from patent US11285167B2, “Synergistic nutritional neuroprotective compositions for ameliorating neural dysfunction” (CELAGENEX RESEARCH (INDIA) PVT. LTD., priority 2019, dated 2022).

Key:
[1] = test system: Major depression disorder in Wistar rats; test: Forced swim test in Reserpine-induced major depression disorder; assay type: in vivo; settings: for Immobility / mobility in forced swim test (in words): compared to disease control or to individual test substances
[2] = test system: Lactate dehydrogenase; test: Lactate dehydrogenase (LDH) level in Valproic acid-induced autism disorder; assay type: in vivo, Albino wistar rats; settings: for LDH: VPA 400 mg/kg, oral daily for 26 days, mean ± SEM; for Levels of lactate dehydrogenase (in words): compared to Disease control or to Group-3 and Group-4
Description: The present study was to evaluate the effect of test substances on Valproic acid induced Autism spectrum disorder in wistar rats. The animals (50 animals) were divided into five groups each group consisting of 10 animals (5 animals per sex). Animals in Group-1 were treated with vehicle (0.5% CMC), Group-2 was treated with Valproic acid (VPA) 400 mg/kg via subcutaneous route, Group-3, Group-4 and Group-5 were treated with test substance Agmatine Sulphate (25.83 mg/kg), Nicotinamide Riboside chloride (6.46 mg/kg) and Agmatine Sulphate+Nicotinamide Riboside chloride (25.83 mg/kg+6.46 mg/kg) respectively, according to the body weight of animals. At the end of the experimental period, blood was collected from each group for biochemical analyses. On postnatal day 40 (PND 40), all the animals were exposed to the Morris water maze test and Open field test for specific time periods to determine the autism-like behaviors of the test substances.
The experiment was performed in 14-day old male and female off springs. The weight of the rat pups on the first day of the experiment was 20-40 grams. Sodium Valproate at dose of 400 mg/kg was freshly prepared and administered via subcutaneous route to the rat pups on postnatal day 14 (PND 14). All the animals were divided into five groups and each group contained the same amount of male and female offspring (5 males and 5 females, per group). Animals in Group-1 served as Normal control and were treated with 0.5% CMC, Group-2 served as Disease control and were treated with VPA (400 mg/kg) via intraperitoneally (i.p.), whereas Group-3 was treated with Test-1 Agmatine Sulphate (25.83 mg/kg), Group-4 was treated with Test-2 Nicotinamide Riboside chloride (6.46 mg/kg) and Group-5 was treated with Test-1+Test-2 Agmatine Sulphate+Nicotinamide Riboside chloride (25.83 mg/kg+6.46 mg/kg). The assigned test substances were administered once daily from PND 14 to PND 40. In addition, behaviors of experimental animals were determined via Morris water maze and open field test.
The test item formulations were administered once each day by oral route at the dose levels of 25.83 mg/kg (agmatine sulphate), 6.46 mg/kg (nicotinamide riboside chloride) and 25.83 mg/kg+6.46 mg/kg/day (agmatine sulphate+nicotinamide riboside chloride), to rats of corresponding groups for a minimum of 26 consecutive days at approximately same time each day (±1 hour). The dose volume administered to each rat was 10 ml/kg/day. Similarly, 0.5% CMC for Normal control and Disease control groups was administered orally at the same dose volume for a minimum of 26 consecutive days. The dose volume was calculated for individual animals on the first day of the treatment and was re-calculated according to the recent body weights recorded during the study. Daily individual dose volumes were recorded in the study records.
Lactate dehydrogenase (also called lactic acid dehydrogenase or LDH) is an enzyme found in almost all body tissues. It plays an important role in cellular respiration, the process by which glucose (sugar) from food is converted into usable energy for our cells.

[3] = test system: Valproic acid-induced autism disorder in albino Wistar rats; test: Open field test (hyperactivity) in Valproic acid-induced autism disorder; assay type: in vivo; settings: for No. of squares visited for 6 mins: PND 40, VPA 400 mg/kg, oral daily PND 14 to PND 40, mean ± SEM; for Hyperactive behavior / locomotor activity, open field test (in words): PND 40, compared to Disease control or to Group-3 and Group-4
Description: The present study was to evaluate the effect of test substances on Valproic acid induced Autism spectrum disorder in wistar rats. The animals (50 animals) were divided into five groups each group consisting of 10 animals (5 animals per sex). Animals in Group-1 were treated with vehicle (0.5% CMC), Group-2 was treated with Valproic acid (VPA) 400 mg/kg via subcutaneous route, Group-3, Group-4 and Group-5 were treated with test substance Agmatine Sulphate (25.83 mg/kg), Nicotinamide Riboside chloride (6.46 mg/kg) and Agmatine Sulphate+Nicotinamide Riboside chloride (25.83 mg/kg+6.46 mg/kg) respectively, according to the body weight of animals. At the end of the experimental period, blood was collected from each group for biochemical analyses. On postnatal day 40 (PND 40), all the animals were exposed to the Morris water maze test and Open field test for specific time periods to determine the autism-like behaviors of the test substances. […] The experiment was performed in 14-day old male and female off springs. The weight of the rat pups on the first day of the experiment was 20-40 grams. Sodium Valproate at dose of 400 mg/kg was freshly prepared and administered via subcutaneous route to the rat pups on postnatal day 14 (PND 14). All the animals were divided into five groups and each group contained the same amount of male and female offspring (5 males and 5 females, per group). Animals in Group-1 served as Normal control and were treated with 0.5% CMC, Group-2 served as Disease control and were treated with VPA (400 mg/kg) via intraperitoneally (i.p.), whereas Group-3 was treated with Test-1 Agmatine Sulphate (25.83 mg/kg), Group-4 was treated with Test-2 Nicotinamide Riboside chloride (6.46 mg/kg) and Group-5 was treated with Test-1+Test-2 Agmatine Sulphate+Nicotinamide Riboside chloride (25.83 mg/kg+6.46 mg/kg). The assigned test substances were administered once daily from PND 14 to PND 40. In addition, behaviors of experimental animals were determined via Morris water maze and open field test. […] The dose volume administered to each rat was 10 ml/kg/day. Similarly, 0.5% CMC for Normal control and Disease control groups was administered orally at the same dose volume for a minimum of 26 consecutive days. The dose volume was calculated for individual animals on the first day of the treatment and was re-calculated according to the recent body weights recorded during the study. Daily individual dose volumes were recorded in the study records. All the animals were exposed to open field tests after the oral treatment with various tests, standard and control treatment in respective groups. The open field apparatus consisted of a wooden field of half square meter with a series of squares alternatively painted in black and white. […] Animals were treated with vehicle and the drug and were placed in the middle of the open field. Then the number of squares visited by the animals was counted for a 6 minute session. The number of entries by respective groups was recorded and used to determine the active time duration of animal post dosing. The determination of the hyperactivity of animals via this test was done on PND 40.

[4] = test system: TNF alpha; test: TNF alpha level in global ischemia reperfusion induced brain injury (cerebral infarction) model; assay type: in vivo, Wistar rats; settings: global ischemia (30 min)/72 h reperfusion, oral daily for 10 days, mean ± SEM, n = 6
[5] = test system: Major depression disorder in Wistar rats; test: Open field test (ambulatory behavior) in Reserpine-induced major depression disorder; assay type: in vivo
[6] = forced swim test 5 min, Reserpine 1.0 mg/kg induced, oral daily 7 days, mean ± SEM, n = 6

Structure (SMILES) | Immobility / mobility in forced swim test (in words) [1] | Climbing [1, 6] | Immobility [1, 6] | LDH ([2]; Female) [U/L] | LDH ([2]; Male) [U/L] | Levels of lactate dehydrogenase (in words) [2] | No. of squares visited for 6 mins ([3]; Female) | No. of squares visited for 6 mins ([3]; Male) | Hyperactive behavior / locomotor activity, open field test (in words) [3] | TNF alpha Level [4] [pg/mL] | No. of open arm entries (Open field test) ([5]; po) | Total time spent in active swimming [1, 6] [s] | No. of open arm entries (Open field test) ([5]; 6 minute session, Reserpine induced, oral daily 7 days, mean ± SEM, n = 6)
N=C(N)NCCCCN.O=S(=O)(O)O [Agmatine sulphate] | mobility of the animals in the treatment groups increased | 16.50 ± 0.43 | 99.67 ± 0.67 | 272.20 ± 3.34 | 268.20 ± 2.56 | normalized levels of lactate dehydrogenase | 85.40 ± 1.03 | 86.20 ± 2.06 | significantly decreased hyperactive behavior | 142.00 ± 1.53 | 36.00 ± 0.86 |  | 
NC(=O)c1ccc[n+]([C@@H]2O[C@H](CO)[C@@H](O)[C@H]2O)c1.[Cl-] [Nicotinamide Riboside chloride, nicotinamide riboside chloride] | mobility of the animals in the treatment groups increased | 15.50 ± 0.62 | 105.50 ± 0.85 | 275.80 ± 1.71 | 274.00 ± 3.11 | normalized levels of lactate dehydrogenase | 87.20 ± 0.97 | 88.40 ± 0.98 | significantly decreased hyperactive behavior | 160.33 ± 4.79 |  | 185.33 ± 0.67 | 31.33 ± 0.71
